{
  "source": "patent US20240018472A1",
  "about": "“ENHANCEMENT OF EXTRACELLULAR VESICLE PRODUCTION BY LYSOSOME INHIBITOR” (ExoTop Theragnostics Inc., priority 2022, published 2024)",
  "key": {"human MSCs": {"test_system": "human MSCs", "assay": "Intracellular acidification of MSCs, lysotracker red staining of acidic organelles", "assay_type": "cell-based", "conditions": "MSCs cultured in CDPF with lysosome inhibitor vs CCM and CDPF", "procedure": "The plate was incubated again.\nHuman MSCs were cultured in different media including complete culture medium (CCM), CDPF, and CDPF with lysosome inhibitor. The acidic organelles in live stem cells were stained by lysotracker red."}, "CD63 [1]": {"test_system": "CD63", "assay": "CD63 ELISA of culture media, secretion of EVs (CD63+ particles) from stem cells", "assay_type": "cell-based, human", "quoted_text": "(§6) Mesenchymal stem cells were seeded on the plate at a density of ˜5000 cells/cm^2 and the plate was placed in a 5% CO2 humidified incubator. One day after the incubation, the culture media was aspirated to remove non-adherent cells and switched to a fresh media. The plate was incubated again. After further culturing for around 3 to 5 days, the culture media was aspirated and replaced by CDPF and/or lysosome inhibitor medium. The cells were cultured in the CDPF and/or lysosome inhibitor medium for 12, 24, or 48 hours. After the designated period of culturing, the culture media was collected and cell lysis buffer was immediately added to the cells on the plate. The collected media and cell lysate were each independently subjected to detection of the level of CD63 by ELISA and by qPCR, respectively.\n(§7) To quantitatively compare CD63+ expression in CM cultured in various media including CCM, CDPF, and CDPF with lysosome inhibitor, enzyme-linked immunosorbent (ELISA) assays were performed."}, "[2]": {"test_system": "fatty acid synthase (FASN)", "assay": "qPCR RQ for fatty acid synthase (FASN) in MSCs in CCM or CDPF with or without lysosome inhibitor", "assay_type": "cell-based", "quoted_text": "as §6, §7"}, "CD63 [3]": {"test_system": "CD63", "assay": "CD63 ELISA of cell-cultured media, MSC with or without CQ in three media", "assay_type": "cell-based", "conditions": "for CD63 levels (ELISA) vs corresponding medium without CQ: CQ 50 μM, 48 hours", "procedure": "(§1) Mesenchymal stem cells (MSC) were cultured in complete media until reaching 70% overall cell confluence, and then were further cultured in three different media with or without chloroquine (CQ) at 50 μM for 48 hours: complete media (normal culture media containing serum), αMEM (minimum essential media), and CDPF (chemically defined protein-free media). The cell-cultured media were collected, filtered through a 0.2 μm filter, and assessed by CD63 ELISA to quantify the amount of CD63, a protein marker associated with small-sized EVs (FIG. 5A).\n(§2) One-way ANOVA statistics were performed to analyze the data. In some cases, CD63 is a marker associated with small-sized EVs. In some cases, CD81 is a marker associated with EVs generally. P-value of greater than 0.05 was considered as not having a significant difference. *** indicates p≤0.001."}, "CD63 [4]": {"test_system": "CD63", "assay": "qPCR of CD63 gene expression in MSCs with or without CQ", "assay_type": "cell-based", "conditions": "CQ 50 μM, 48 hours; for gene expression of CD63 (in words): listed as CQ", "procedure": "as §1\n(§3) To further examine whether the upregulation of CD63 protein is a result of cytosolic secretion or heightened expression at the gene level, an analysis of alterations in the gene expression levels of extracellular vesicle-specific components in both complete and serum-free media was performed. The cultured cells were collected to perform qPCR analysis to detect three well-established EV markers: CD09, CD63, and CD81 (FIGS. 5B, 5C, and 5D).\nas §2"}, "CD81": {"test_system": "CD81", "assay": "qPCR of CD81 gene expression in MSCs with or without CQ", "assay_type": "cell-based", "conditions": "all media conditions (complete, αMEM, CDPF); CQ 50 μM, 48 hours; listed as CQ", "procedure": "as §1, §3, §2"}, "CD09": {"test_system": "CD09", "assay": "qPCR of CD09 gene expression in MSCs with or without CQ", "assay_type": "cell-based", "conditions": "all media conditions; CQ 50 μM, 48 hours", "procedure": "as §1, §3, §2"}, "[5]": {"test_system": "Mesenchymal stem cells (MSCs)", "assay": "Cellular morphology of MSCs after 48-hour culture with or without CQ", "assay_type": "cell-based", "conditions": "CQ in serum-free media compared to complete media", "procedure": "(§4) Mesenchymal stem cells (MSCs) were subjected to 48-hour culture in either complete media or serum-free media, followed by treatment with or without CQ to investigate alterations in cellular morphology. In addition, the gene expression levels of FASN (fatty acid synthase, a pivotal lipogenic enzyme) and SREBF-1(sterol regulatory element-binding transcription factor-1), two key factors involved in lipid metabolism, were assessed by qPCR."}, "[6]": {"test_system": "FASN (fatty acid synthase)", "assay": "qPCR of FASN gene expression in MSCs with or without CQ", "assay_type": "cell-based", "conditions": "both serum-free media and complete media, 48-hour culture", "procedure": "as §4"}, "[7]": {"test_system": "SREBF-1 (sterol regulatory element-binding transcription factor-1)", "assay": "qPCR of SREBF-1 gene expression in MSCs with or without CQ", "assay_type": "cell-based", "conditions": "both serum-free media and complete media, 48-hour culture", "procedure": "as §4"}, "[8]": {"test_system": "TSG-6 (tumor necrosis factor-inducible gene 6 protein)", "assay": "Protein expression of TSG-6, MSC with or without CQ", "assay_type": "cell-based", "conditions": "regardless of the culture condition; CQ 50 μM, 48 hours", "procedure": "(§5) Mesenchymal stem cells (MSC) were cultured in complete media until reaching 70% overall cell confluence, and then were further cultured in three different media with or without chloroquine (CQ) at 50 μM for 48 hours: complete media (normal culture media containing serum), αMEM (minimum essential media), and CDPF (chemically defined protein-free media). The cultured cells were analyzed for protein expression of TSG-6 (tumor necrosis factor-inducible gene 6 protein), Gal-3 (β-galactoside-binding lectin-3), and IDO and microRNA expression of miR-21 and miR-222. One-way ANOVA statistics were performed to analyze the data. P-value of greater than 0.05 was considered as not having a significant difference. *** indicates p≤0.001."}, "[9]": {"test_system": "Gal-3 (β-galactoside-binding lectin-3)", "assay": "Protein expression of Gal-3, MSC with or without CQ", "assay_type": "cell-based", "conditions": "both αMEM media and CDPF media; CQ 50 μM, 48 hours", "procedure": "as §5"}, "IDO": {"test_system": "IDO", "assay": "Protein expression of IDO, MSC with or without CQ", "assay_type": "cell-based", "conditions": "both αMEM media and CDPF media; CQ 50 μM, 48 hours", "procedure": "as §5"}, "miR-21": {"test_system": "miR-21", "assay": "microRNA expression of miR-21, MSC with or without CQ", "assay_type": "cell-based", "conditions": "CQ 50 μM, 48 hours", "procedure": "as §5"}, "miR-222": {"test_system": "miR-222", "assay": "microRNA expression of miR-222 (miR-22 in the source), MSC with or without CQ", "assay_type": "cell-based", "conditions": "CQ 50 μM, 48 hours", "procedure": "as §5"}, "[10]": {"conditions": "CDPF with lysosome inhibitor vs CDPF, RT-qPCR"}, "[11]": {"conditions": "complete media culture condition"}},
  "note": "Entries after “also recorded” stand apart in the source; their conditions may differ.",
  "data": [
    {"smiles": "CCN(CC)CCCC(C)Nc1ccnc2cc(Cl)ccc12", "note": "(centres unmarked) [chloroquine]", "values": [
      {"measurement": "intracellular acidification of human MSCs", "setting": "human MSCs", "result": "suppresses"},
      {"measurement": "secretion of EVs (CD63+ particles) from stem cells to cultured medium (in words)", "setting": "CD63 [1]; CDPF with lysosome inhibitor vs CCM and CDPF", "result": "stimulated"},
      {"measurement": "EV productions (CD63 ELISA), fold vs CCM or CDPF without lysosome inhibitor", "setting": "CD63 [1]; CDPF with lysosome inhibitor vs CCM or CDPF", "result": "about 2.3 times"},
      {"measurement": "expression of FASN, fold vs CCM", "setting": "[2]; CCM with lysosome inhibitor vs CCM, RT-qPCR", "result": "about 25 times"},
      {"measurement": "expression of FASN, fold vs CDPF without lysosome inhibitor", "setting": "[2]; [10]", "result": "about 5 times"},
      {"measurement": "gene expression of FASN (in words)", "setting": "[2]; treatment with lysosome inhibitor, qPCR RQ", "result": "drastically induced"},
      {"measurement": "CD63 levels (ELISA) vs corresponding medium without CQ", "setting": "CD63 [3]; CDPF+CQ", "result": "higher"},
      {"measurement": "CD63 levels (ELISA) vs corresponding medium without CQ", "setting": "CD63 [3]; complete medium+CQ", "result": "higher"},
      {"measurement": "increase in EVs (CD63+) quantity resulting from CQ treatment, serum-free vs complete media", "setting": "CD63 [3]; serum-free media (αMEM and CDPF) compared to complete media", "result": "larger"},
      {"measurement": "CD63 levels (ELISA) vs corresponding medium without CQ", "setting": "CD63 [3]; αMEM+CQ", "result": "higher"},
      {"measurement": "gene expression of CD63, fold vs corresponding medium without CQ", "setting": "CD63 [4]; CDPF+CQ vs CDPF", "result": "more than 2.5 times"},
      {"measurement": "gene expression of CD63 (in words)", "setting": "CD63 [4]; complete media", "result": "no notable changes; also recorded: not seen"},
      {"measurement": "gene expression of CD63 (in words)", "setting": "CD63 [4]; serum-free media (αMEM, CDPF), p≤0.001", "result": "significant upregulation; also recorded: large increase"},
      {"measurement": "gene expression of CD63, fold vs corresponding medium without CQ", "setting": "CD63 [4]; αMEM+CQ vs αMEM", "result": "more than 2.5 times"},
      {"measurement": "CD81 gene expression (in words)", "setting": "CD81", "result": "did not increase significantly; also recorded: remained similar"},
      {"measurement": "CD09 expression (in words)", "setting": "CD09", "result": "elevated"},
      {"measurement": "cellular morphology", "setting": "[5]", "result": "notable thinning of spindle-shaped cells and the emergence of numerous lipid body-like structures"},
      {"measurement": "gene expression of FASN (in words)", "setting": "[6]", "result": "robust upregulation"},
      {"measurement": "gene expression of SREBF-1 (in words)", "setting": "[7]", "result": "robust upregulation"},
      {"measurement": "TSG-6 content levels (in words)", "setting": "[8]", "result": "did not stimulate an increase"},
      {"measurement": "expression level of Gal-3 (in words)", "setting": "[9]", "result": "increased"},
      {"measurement": "expression level of IDO (in words)", "setting": "IDO", "result": "increased"},
      {"measurement": "expression of miR-21 (in words)", "setting": "miR-21; [11]", "result": "did not induce an increase"},
      {"measurement": "expression of miR-21 (in words)", "setting": "miR-21; serum-free conditions", "result": "increased"},
      {"measurement": "expression of miR-22 (in words)", "setting": "miR-222; [11]", "result": "did not induce an increase"},
      {"measurement": "expression of miR-22 (in words)", "setting": "miR-222; serum-free conditions", "result": "increased"},
      {"measurement": "expression of hCD63+ gene, fold vs MSCs cultured in CCM", "setting": "human CD63 (hCD63) gene; CDPF with lysosome inhibitor vs CCM, RT-qPCR", "result": "about 10 times"},
      {"measurement": "expression of hCD63+ gene, fold vs MSCs cultured in CDPF without lysosome inhibitor", "setting": "human CD63 (hCD63) gene; [10]", "result": "about 5 times"},
      {"measurement": "CD63 gene expression in MSCs (in words)", "setting": "human CD63 (hCD63) gene; CDPF with lysosome inhibitor, qPCR", "result": "dramatic increase; also recorded: increased"}
    ]}
  ]
}
